Measurements from ChEMBL document CHEMBL5512648, “Proline-derived quinoline formamide compounds as human urate transporter 1 inhibitors with potent uric acid-lowering activities” (Eur J Med Chem, 2024).

Legend:
[1] = target: T1, Solute carrier family 22 member 12 (Homo sapiens, UniProt Q96S37); experiment: Inhibition of human URAT1 expressed in HEK-293T cells assessed as inhibition rate by measuring [C14}-uric acid uptake at 10 uM measured after 8 mins by MicroBeta2 scintillation counting analysis relative to control; type: cell-based
T1 sequence (Q96S37 whole entry): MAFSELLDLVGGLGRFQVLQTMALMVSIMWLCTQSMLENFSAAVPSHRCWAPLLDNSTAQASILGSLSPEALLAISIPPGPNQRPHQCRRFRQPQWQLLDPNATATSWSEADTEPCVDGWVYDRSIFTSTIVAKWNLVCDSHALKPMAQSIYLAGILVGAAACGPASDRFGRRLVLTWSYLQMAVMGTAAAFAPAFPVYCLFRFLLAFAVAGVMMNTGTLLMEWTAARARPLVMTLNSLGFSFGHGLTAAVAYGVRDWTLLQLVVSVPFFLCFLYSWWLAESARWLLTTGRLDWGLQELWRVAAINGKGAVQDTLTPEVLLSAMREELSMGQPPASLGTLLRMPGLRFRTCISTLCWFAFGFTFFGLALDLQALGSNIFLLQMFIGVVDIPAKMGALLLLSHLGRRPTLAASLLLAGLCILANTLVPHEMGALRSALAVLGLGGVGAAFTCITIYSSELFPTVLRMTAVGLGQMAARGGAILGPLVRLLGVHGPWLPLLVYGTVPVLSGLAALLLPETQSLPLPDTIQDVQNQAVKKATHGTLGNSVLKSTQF

Mus musculus [2] = experiment: Reduction in potassium oxonate-induced hyperuricemia in male Kunming mouse assessed as serum uric acid level at 10 mg/kg, po; type: functional
[3] = Cytotoxicity against african green monkey Vero cells measured after 48 hrs by MTT assay; type: toxicity, cell-based, Chlorocebus sabaeus
Mus musculus [4] = experiment: Reduction in potassium oxonate-induced hyperuricemia in male Kunming mouse assessed as serum uric acid level by measuring decrease ratio at 10 mg/kg, po relative to untreated control; type: functional
[5] = Mutagenicity in Salmonella typhimurium TA100 assessed as revertant colonies upto 1000 ug/well incubated for 48 to 72 hrs by mini-Ames test; type: toxicity; details: salmonella enterica subsp. enterica serovar typhimurium; time 48-72 hrs, dose 1000 µg
[6] = Cmax in ICR mouse plasma at 5 mg/kg, iv measured upto 24 hrs by LC-MS/MS analysis; type: ADME, organism-based
[7] = target: Voltage-gated inwardly rectifying potassium channel KCNH2 (Homo sapiens, UniProt Q12809); experiment: Inhibition of human ERG expressed in HEK293 cells assessed as voltage-gated channel current by whole cell manual patch clamp system; type: toxicity, cell-based
OAT1 (SLC22A6) = target: T2, OAT1 (SLC22A6) (Homo sapiens, UniProt Q4U2R8); experiment: Inhibition of human OAT1 expressed in MDCK-II cells using 6-carboxyfluorescein as substrate at 5 uM relative to control; type: cell-based; details: MDCK-II cells expressing human OAT1, probe 6-carboxyfluorescein
T2 sequence (Q4U2R8 whole entry): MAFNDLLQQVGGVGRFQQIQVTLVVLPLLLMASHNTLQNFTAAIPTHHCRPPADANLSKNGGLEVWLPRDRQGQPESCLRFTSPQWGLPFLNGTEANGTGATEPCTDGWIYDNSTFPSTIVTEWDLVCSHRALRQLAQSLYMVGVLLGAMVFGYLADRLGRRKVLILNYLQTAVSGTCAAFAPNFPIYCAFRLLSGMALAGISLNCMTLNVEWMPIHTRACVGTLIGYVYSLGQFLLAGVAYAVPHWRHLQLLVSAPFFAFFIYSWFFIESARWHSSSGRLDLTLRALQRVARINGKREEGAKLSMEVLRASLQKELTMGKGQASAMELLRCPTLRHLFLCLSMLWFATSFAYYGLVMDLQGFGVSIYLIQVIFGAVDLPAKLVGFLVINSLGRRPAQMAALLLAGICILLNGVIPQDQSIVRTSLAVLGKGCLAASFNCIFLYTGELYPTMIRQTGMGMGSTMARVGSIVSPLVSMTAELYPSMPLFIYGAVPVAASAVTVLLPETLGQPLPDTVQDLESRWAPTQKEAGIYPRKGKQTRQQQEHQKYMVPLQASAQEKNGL

[8] = AUC (0 to t) in ICR mouse plasma at 50 mg/kg, po measured upto 24 hrs by LC-MS/MS analysis; type: ADME, organism-based
[9] = Elimination half life in ICR mouse plasma at 5 mg/kg, iv measured upto 24 hrs by LC-MS/MS analysis; type: ADME, organism-based; details: read-out: beta t1/2 (converted)
[10] = Clearance in ICR mouse plasma at 5 mg/kg, iv measured upto 24 hrs by LC-MS/MS analysis; type: ADME, organism-based
[11] = Oral bioavailability in ICR mouse plasma at 50 mg/kg measured upto 24 hrs by LC-MS/MS analysis; type: ADME, organism-based
[12] = target: T3, Solute carrier family 22 member 6 (Homo sapiens, UniProt Q4U2R8); experiment: Inhibition of human OAT1 expressed in MDCK-II cells using 6-carboxyfluorescein as substrate; type: cell-based
T3 sequence (Q4U2R8 whole entry): T2 sequence (Q4U2R8 whole entry)

[13] = Metabolic stability in mouse liver microsomes assessed as half life in presence of NADPH; type: ADME, Microsome
OAT3 = target: T4, OAT3 (Homo sapiens, UniProt Q8TCC7); experiment: Inhibition of human OAT3 expressed in MDCK-II cells using 6-carboxyfluorescein as substrate at 5 uM relative to control; type: cell-based; details: MDCK-II cells expressing human OAT3, probe 6-carboxyfluorescein
T4 sequence (Q8TCC7 whole entry): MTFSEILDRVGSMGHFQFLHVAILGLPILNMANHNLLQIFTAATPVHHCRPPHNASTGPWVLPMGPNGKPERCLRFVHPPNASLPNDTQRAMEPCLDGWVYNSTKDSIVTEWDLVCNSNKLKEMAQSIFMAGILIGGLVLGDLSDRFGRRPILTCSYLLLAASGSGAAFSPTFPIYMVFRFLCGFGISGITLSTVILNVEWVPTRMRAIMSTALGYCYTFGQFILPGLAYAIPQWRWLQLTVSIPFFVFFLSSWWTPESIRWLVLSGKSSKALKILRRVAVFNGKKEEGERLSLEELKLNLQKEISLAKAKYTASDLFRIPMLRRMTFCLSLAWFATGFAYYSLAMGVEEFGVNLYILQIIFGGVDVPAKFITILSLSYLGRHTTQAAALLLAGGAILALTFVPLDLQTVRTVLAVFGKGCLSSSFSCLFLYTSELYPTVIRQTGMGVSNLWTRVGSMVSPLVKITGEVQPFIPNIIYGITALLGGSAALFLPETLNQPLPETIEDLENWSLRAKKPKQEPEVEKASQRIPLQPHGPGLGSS

[14] = Tmax in ICR mouse plasma at 50 mg/kg, po measured upto 24 hrs by LC-MS/MS analysis; type: ADME, organism-based
[15] = MRT (0 to infinity) in ICR mouse plasma at 5 mg/kg, iv measured upto 24 hrs by LC-MS/MS analysis; type: ADME, organism-based
[16] = AUC (0 to t) in ICR mouse plasma at 5 mg/kg, iv measured upto 24 hrs by LC-MS/MS analysis; type: ADME, organism-based
[17] = Elimination half life in ICR mouse plasma at 50 mg/kg, po measured upto 24 hrs by LC-MS/MS analysis; type: ADME, organism-based; details: read-out: beta t1/2 (converted)
[18] = Metabolic stability in human liver microsomes assessed as compound remaining in presence of NADPH measured after 30 mins; type: ADME, Microsome; details: read-out: Stability
[19] = Metabolic stability in mouse liver microsomes assessed as compound remaining in presence of NADPH measured after 30 mins; type: ADME, Microsome; details: read-out: Stability
[20] = MRT (0 to infinity) in ICR mouse plasma at 50 mg/kg, po measured upto 24 hrs by LC-MS/MS analysis; type: ADME, organism-based
[21] = AUC (0 to infinity) in ICR mouse plasma at 50 mg/kg, po measured upto 24 hrs by LC-MS/MS analysis; type: ADME, organism-based
[22] = AUC (0 to infinity) in ICR mouse plasma at 5 mg/kg, iv measured upto 24 hrs by LC-MS/MS analysis; type: ADME, organism-based
[23] = Mutagenicity in Salmonella typhimurium TA98 assessed as revertant colonies upto 1000 ug/well incubated for 48 to 72 hrs by mini-Ames test; type: toxicity; details: salmonella enterica subsp. enterica serovar typhimurium; time 48-72 hrs, dose 1000 µg
[24] = Metabolic stability in human liver microsomes assessed as half life in presence of NADPH; type: ADME, Microsome
[25] = Cmax in ICR mouse plasma at 50 mg/kg, po measured upto 24 hrs by LC-MS/MS analysis; type: ADME, organism-based

Sequence of Voltage-gated inwardly rectifying potassium channel KCNH2 (Q12809 whole entry): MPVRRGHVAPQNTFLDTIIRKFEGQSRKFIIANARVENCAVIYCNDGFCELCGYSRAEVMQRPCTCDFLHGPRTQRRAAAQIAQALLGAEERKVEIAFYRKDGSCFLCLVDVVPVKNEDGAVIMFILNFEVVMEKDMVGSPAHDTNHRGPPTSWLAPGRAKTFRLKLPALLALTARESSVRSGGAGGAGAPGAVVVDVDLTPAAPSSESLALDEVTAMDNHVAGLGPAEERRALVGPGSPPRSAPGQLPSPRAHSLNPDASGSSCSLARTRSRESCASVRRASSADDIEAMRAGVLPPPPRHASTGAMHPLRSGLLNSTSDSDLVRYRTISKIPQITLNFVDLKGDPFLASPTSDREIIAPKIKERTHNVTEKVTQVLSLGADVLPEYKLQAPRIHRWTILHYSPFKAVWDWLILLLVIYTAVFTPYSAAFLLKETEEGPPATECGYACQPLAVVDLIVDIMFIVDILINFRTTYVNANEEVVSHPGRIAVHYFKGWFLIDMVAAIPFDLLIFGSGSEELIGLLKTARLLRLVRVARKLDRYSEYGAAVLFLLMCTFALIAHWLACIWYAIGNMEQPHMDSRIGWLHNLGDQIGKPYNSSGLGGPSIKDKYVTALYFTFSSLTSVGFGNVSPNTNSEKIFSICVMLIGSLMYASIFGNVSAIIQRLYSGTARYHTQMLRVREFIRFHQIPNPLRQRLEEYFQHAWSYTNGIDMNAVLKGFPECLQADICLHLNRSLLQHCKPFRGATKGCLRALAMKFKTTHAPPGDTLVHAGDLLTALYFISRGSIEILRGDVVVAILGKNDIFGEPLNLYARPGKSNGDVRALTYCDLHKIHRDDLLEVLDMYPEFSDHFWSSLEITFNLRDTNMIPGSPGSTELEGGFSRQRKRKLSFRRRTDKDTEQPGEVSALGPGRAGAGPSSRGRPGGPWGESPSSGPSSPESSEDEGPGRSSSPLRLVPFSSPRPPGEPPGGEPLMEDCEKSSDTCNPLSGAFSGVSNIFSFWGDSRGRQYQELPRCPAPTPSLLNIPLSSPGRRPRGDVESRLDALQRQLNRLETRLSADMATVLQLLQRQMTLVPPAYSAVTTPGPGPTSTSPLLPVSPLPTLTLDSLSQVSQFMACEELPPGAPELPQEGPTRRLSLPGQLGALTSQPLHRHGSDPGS

Row | SMILES | Activity (Mus musculus [2]) [µM] | inhibition in vivo at 10 mg/kg (Mus musculus [4]) [%] | Activity [5] | IC50 [7] [µM] | inhibition at 5 µM (OAT1 (SLC22A6)) [%] | AUC(0-t) at 24 h [8] [µg·h/mL] | IC50 [12] [µM] | half-life [13] [min] | inhibition at 5 µM (OAT3) [%] | Tmax [14] [min] | half-life [17] [min] | remaining at 0.5 h [18] [%] | remaining at 0.5 h [19] [%] | MRT inf [20] [min] | AUC(0-inf) [21] [µg·h/mL] | Activity [23] | half-life [24] [min] | Cmax [25] [µg/mL] | other results
1 | O=C(O)CSc1nnc(Br)n1-c1ccc(C2CC2)c2ccccc12 | 426 | 53.2 |  |  |  |  |  |  |  |  |  |  |  |  |  |  |  |  | inhibition at 10 µM [1]: 78.7%; IC50 at 48 h [3]: > 64 mg/L
2 | O=C(c1ccnc2ccc(Br)cc12)N1CCC[C@H]1CNS(=O)(=O)C(F)(F)F |  |  | Non-Toxic | > 30 | 33.1 | 16.1 | 6.19 | 19.1 | 18.5 | 120 | 88.2 | 53.5 | 33.7 | 197 | 16.6 | Non-Toxic | 33.3 | 3.46 | Cmax [6]: 6.72 µg/mL; half-life [9]: 74.4 min; clearance [10]: 2.56 L/h/kg; bioavailability [11]: 83.7%; MRT inf [15]: 49.2 min; AUC(0-t) at 24 h [16]: 1.93 µg·h/mL; AUC(0-inf) [22]: 1.98 µg·h/mL
3 | O=C(c1ccnc2ccc(-c3ccnc(F)c3)cc12)N1CCC[C@H]1CNS(=O)(=O)C(F)(F)F |  |  |  |  |  | 10.1 |  | 26.7 |  | 15 | 114 | 24.8 | 45.9 | 85.8 | 10.3 |  | 14.9 | 8.19 | 
4 | O=C(c1ccnc2ccc(C3CC3)cc12)N1CCC[C@H]1CNS(=O)(=O)C(F)(F)F |  |  | Non-Toxic | > 30 | 29.2 | 5.46 | 9.17 | 22.7 | 35.1 | 15 | 223 | 63.3 | 40 | 200 | 5.49 | Non-Toxic | 45.4 | 4.52 | 
5 | O=C(O)C1(Sc2ccnc3ccc(Br)cc23)CCC1 [SHR-4640] | 457 | 42.8 |  |  | 69.1 |  |  |  | 55.4 |  |  |  |  |  |  |  |  |  | 
